Here are results for 17 compounds from patent publication US11130769B2 (Prelude Therapeutics Incorporated, priority 2018, dated 2021).

As usually defined, the IC50 is the midpoint of a concentration-inhibition curve.

Assay in series [1]: not given
The source holds these as a separate data set.

Series [2] concerns the target MCL-1 (Homo sapiens (Human), UniProt Q07820). Description: Cell free Mcl-1:Bim affinity assay (fluorescence polarization competition). It is filed as binding. The conditions noted are these: 15 nM MCL-1, 5 nM FITC-Bim, 1 hour at room temperature, read-out: BIM_Ki. Summed up:
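Compounds competed with FITC-labelled Bim peptide (5 nM) for MCL-1 (15 nM) in HEPES/NaCl buffer with 1% DMSO, 1 h at room temperature. Fluorescence polarization (535 nm emission) gave % inhibition versus DMSO and positive controls; IC50 from 10-point curves, converted to Ki by the Nikolovska-Coleska equation.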
A general note: Fluorescence polarisation rises when a labelled molecule tumbles more slowly, as on binding a larger partner.

Series [3] concerns H929 cells. The series can be described thus: Cell viability assay (H929 10 FBS). The class given is cell-based. The conditions noted are these: read-out: H929_10FBS IC50. Summed up:
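H929 cells, 4000/well, in RPMI 1640 with 10% FBS, sodium pyruvate, HEPES and glucose were exposed to compound 24 h at 37 °C. Viability read as luminescence after 30-60 min at RT with CellTiter-Glo or ATPlite 1 Step.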

[4] abbreviates: from C=CC(C)OC(C)(C)C(=O)NS(=O)(=O)c1ccc2c(c1)N(C[C@@H]1CC[C@H]1[C@@H](O)C=C)C[C@@]1(CCCc3cc(Cl)ccc31)CO2, rcm bond, 16-membered ring, Zhan catalyst, DCE, 2.1 mM, 45.0 °C, 2.0 h.
Setting [5] is: from C=CCN(C(=O)OC(C)(C)C)[C@H](C)C(=O)NS(=O)(=O)c1ccc2c(c1)N(C[C@@H]1CC[C@H]1[C@@H](O)C=C)C[C@@]1(CCCc3cc(Cl)ccc31)CO2, rcm bond, 16-membered ring, Zhan Catalyst 1B, DCE, 1.8 mM, 40.0 °C, 3.0 h.
Where [6] appears, read: Homo sapiens, NCI-H929, 24 hours.

Where “and” joins values, the source holds several entries; their conditions need not be identical. Identical values can stand only once. Like-named read-outs stand apart in the source and are kept apart here.

Chain of MCL-1 (Q07820 whole entry): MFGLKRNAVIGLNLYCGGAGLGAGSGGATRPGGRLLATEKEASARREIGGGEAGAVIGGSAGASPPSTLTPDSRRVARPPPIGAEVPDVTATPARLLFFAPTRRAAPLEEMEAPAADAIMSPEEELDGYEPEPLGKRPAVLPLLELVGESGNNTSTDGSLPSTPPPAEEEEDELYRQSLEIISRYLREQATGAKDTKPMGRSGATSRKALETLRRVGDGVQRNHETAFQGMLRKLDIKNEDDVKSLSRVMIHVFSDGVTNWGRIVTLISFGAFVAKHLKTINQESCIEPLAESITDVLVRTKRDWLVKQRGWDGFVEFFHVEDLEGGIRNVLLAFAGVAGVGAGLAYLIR

For the compound `CC(C)(C)OC(=O)N1CC=C[C@H](O)[C@@H]2CC[C@H]2CN2C[C@@]3(CCCc4cc(Cl)ccc43)COc3ccc(cc32)S(=O)(=O)NC(=O)C12CCC2`, the ring closure, isolated yield (from C=CCN(C(=O)OC(C)(C)C)C1(C(=O)NS(=O)(=O)c2ccc3c(c2)N(C[C@@H]2CC[C@H]2[C@@H](O)C=C)C[C@@]2(CCCc4cc(Cl)ccc42)CO3)CCC1, rcm bond, 16-membered ring, Zhan Catalyst II (resin supported), DCE, 1.0 mM, 60.0 °C, 3.0 h) worked out at 93%.
In series [1] (from C=CCOC(C)(C)C(=O)NS(=O)(=O)c1ccc2c(c1)N(C[C@@H]1CC[C@H]1[C@@](C)(O)C=C)C[C@@]1(CCCc3cc(Cl)ccc31)CO2, rcm bond, 16-membered ring, Zhan catalyst, DCE, 1.6 mM, 45.0 °C, 2.0 h), `CC1(C)OC/C=C/[C@](C)(O)[C@@H]2CC[C@H]2CN2C[C@@]3(CCCc4cc(Cl)ccc43)COc3ccc(cc32)S(=O)(=O)NC1=O` yielded a ring closure, yield after HPLC of 3.3%.
`CC1/C=C/[C@H](O)[C@@H]2CC[C@H]2CN2C[C@@]3(CCCc4cc(Cl)ccc43)COc3ccc(cc32)S(=O)(=O)NC(=O)C(C)(C)O1` (stereo partly drawn) gave a ring closure, isolated yield under setting [4] of 62.4%.
The same measure, in the same setting: for `CC1/C=C\[C@H](O)[C@@H]2CC[C@H]2CN2C[C@@]3(CCCc4cc(Cl)ccc43)COc3ccc(cc32)S(=O)(=O)NC(=O)C(C)(C)O1` (stereo partly drawn) the value was 15.2%.
`CO[C@@H]1C=CCN(C(=O)OC(C)(C)C)CC2(CCC2)C(=O)NS(=O)(=O)c2ccc3c(c2)N(C[C@@H]2CC[C@H]21)C[C@@]1(CCCc2cc(Cl)ccc21)CO3` had a ring closure, isolated yield (from C=CCN(CC1(C(=O)NS(=O)(=O)c2ccc3c(c2)N(C[C@@H]2CC[C@H]2[C@@H](C=C)OC)C[C@@]2(CCCc4cc(Cl)ccc42)CO3)CCC1)C(=O)OC(C)(C)C, rcm bond, 17-membered ring, Hoveyda-Grubbs II, DCE, 2.6 mM, 16.0 h) of 80%.
On to `CO[C@@H]1C=CCNC(=O)NS(=O)(=O)c2ccc3c(c2)N(C[C@@H]2CC[C@H]21)C[C@@]1(CCCc2cc(Cl)ccc21)CO3`, for which, in series [1] (from C=CCNC(=O)NS(=O)(=O)c1ccc2c(c1)N(C[C@@H]1CC[C@H]1[C@@H](C=C)OC)C[C@@]1(CCCc3cc(Cl)ccc31)CO2, rcm bond, 15-membered ring, Hoveyda-Grubbs II, DCE, 1.0 mM, 80.0 °C, 16.0 h), the ring closure, yield after HPLC is 7.2% and 31%.
For the compound `C[C@@H]1C(=O)NS(=O)(=O)c2ccc3c(c2)N(C[C@@H]2CC[C@H]2[C@@H](O)/C=C/CN1C(=O)OC(C)(C)C)C[C@@]1(CCCc2cc(Cl)ccc21)CO3`, under setting [5], the ring closure, isolated yield came out at 44%.
On the same count and under the same terms, for `C[C@@H]1C(=O)NS(=O)(=O)c2ccc3c(c2)N(C[C@@H]2CC[C@H]2[C@@H](O)C=CCN1C(=O)OC(C)(C)C)C[C@@]1(CCCc2cc(Cl)ccc21)CO3` the value was 36%.
Regarding `O=C1NS(=O)(=O)c2ccc3c(c2)N(C[C@@H]2CC[C@H]2[C@@H](O)C=CCOC12CCC2)C[C@@]1(CCCc2cc(Cl)ccc21)CO3`, the ring closure, isolated yield (from C=CCOC1(C(=O)NS(=O)(=O)c2ccc3c(c2)N(C[C@@H]2CC[C@H]2[C@@H](O)C=C)C[C@@]2(CCCc4cc(Cl)ccc42)CO3)CCC1, rcm bond, 16-membered ring, Hoveyda-Grubbs II, DCE, 1.46 mM, 40.0 °C, 2.0 h) came to 66.3%.
For the compound `O=C1CC/C=C/COC[C@@H]2CC[C@H]2CN2C[C@@]3(CCCc4cc(Cl)ccc43)COc3ccc(cc32)S(=O)(=O)N1` [Example 99, (3R,6R,10E,23S)-6′-Chloro-16,16-dioxo-spiro[8,21-dioxa-16-thia-1,15-diazatetracyclo[15.7.2.03,6.020,25]hexacosa-10,17(26),18,20(25)-tetraene-23,1′-tetralin]-14-one], the Ki in series [2] (class symbols) lay in the range of 1 to 100 nM. The IC50 in series [3] (setting [6]) was greater than 1000 nM. The compound also returned a ring closure, isolated yield (from C=CCCC(=O)NS(=O)(=O)c1ccc2c(c1)N(C[C@@H]1CC[C@H]1COCC=C)C[C@@]1(CCCc3cc(Cl)ccc31)CO2, rcm bond, 17-membered ring, Hoveyda-Grubbs II, DCM, 16.7 mM, 24.0 h) of 51%.
On to `O=C1Cc2cncc(c2)OC[C@@H]2CC[C@H]2CN2C[C@@]3(CCCc4cc(Cl)ccc43)COc3ccc(cc32)S(=O)(=O)N1` [Example 104, (3R,6R,24S)-6′-Chloro-17,17-dioxo-spiro[8,22-dioxa-17-thia-1,11,16-triazapentacyclo[16.7.2.19,13.03,6.021,26]octacosa-9(28),10,12,18(27),19,21(26)-hexaene-24,1′-tetralin]-15-one], for which, in series [2] (class symbols), the Ki is less than 1 nM. Besides, the IC50 in series [3] (setting [6]) is greater than 1000 nM. For the same compound, where the note is “from NS(=O)(=O)c1ccc2c(c1)N(C[C@@H]1CC[C@H]1COc1cncc(CC(=O)O)c1)C[C@@]1(CCCc3cc(Cl)ccc31)CO2, amide bond, 16-membered ring, EDCI/DMAP, DCM/DMF 9:1, 12.0 mM, 16.0 h”, the ring closure, isolated yield worked out at 28%.
With `CO[C@@H]1/C=C/CCNC(=O)NS(=O)(=O)c2ccc3c(c2)N(C[C@@H]2CC[C@H]21)C[C@@]1(CCCc2cc(Cl)ccc21)CO3` [Example 106, (3R,6R,7R,8E,22S)-6′-Chloro-7-methoxy-15,15-dioxo-spiro[20-oxa-15-thia-1,12,14-triazatetracyclo[14.7.2.03,6.019,24]pentacosa-8,16,18,24-tetraene-22,1′-tetralin]-13-one], the Ki in series [2] (class symbols) lay in the range of 1 to 100 nM. In addition, the IC50 in series [3] (setting [6]) was less than 1000 nM. The ring closure, yield after HPLC in series [1] (from C=CCCNC(=O)NS(=O)(=O)c1ccc2c(c1)N(C[C@@H]1CC[C@H]1[C@@H](C=C)OC)C[C@@]1(CCCc3cc(Cl)ccc31)CO2, rcm bond, 16-membered ring, Hoveyda-Grubbs II, DCE, 1.5 mM, 80.0 °C, 16.0 h) was determined as 43%.
For `CN1CCOC(C)(C)C(=O)NS(=O)(=O)c2ccc3c(c2)N(C[C@@H]2CC[C@H]2C1=O)C[C@@]1(CCCc2cc(Cl)ccc21)CO3` [Example 110, (3R,6R,22S)-6′-Chloro-8,12,12-trimethyl-15,15-dioxo-spiro[11,20-dioxa-thia-1,8,14-triazatetracyclo[14.7.2.03,6.019,24]pentacosa-16(25),17,19(24)-triene-22,1′-tetralin]-7,13-dione], the Ki in series [2] (class symbols) is 1 to 100 nM. Also, the IC50 in series [3] (setting [6]) is greater than 1000 nM. The compound also showed a ring closure, yield after HPLC in series [1] (from CNCCOC(C)(C)C(=O)NS(=O)(=O)c1ccc2c(c1)N(C[C@@H]1CC[C@H]1C(=O)O)C[C@@]1(CCCc3cc(Cl)ccc31)CO2, amide bond, 16-membered ring, HATU/DIEA, DMF, 6.0 mM, 20.0 °C, 1.0 h) of 25%.
As for `C[C@H]1C(=O)NS(=O)(=O)c2ccc3c(c2)N(C[C@@H]2CC[C@H]2COCC(=O)N1C)C[C@@]1(CCCc2cc(Cl)ccc21)CO3` [Example 196, (3R,6R,12S,22S)-6′-Chloro-11,12-dimethyl-15,15-dioxo-spiro[8,20-dioxa-15-thia-1,11,14-triazatetracyclo[14.7.2.03,6.019,24]pentacosa-16,18,24-triene-22,1′-tetralin]-10,13-dione], the Ki in series [2] (class symbols) is 1 to 100 nM. In series [3] (setting [6]), the half-inhibitory concentration (IC50) is greater than 1000 nM. Besides, in series [1] (from CN[C@@H](C)C(=O)NS(=O)(=O)c1ccc2c(c1)N(C[C@@H]1CC[C@H]1COCC(=O)O)C[C@@]1(CCCc3cc(Cl)ccc31)CO2, amide bond, 16-membered ring, HATU/DIEA, DMF, 20.0 mM, 20.0 °C, 1.0 h), the ring closure, yield after HPLC worked out at 24.6%.
On to `CON(C)C(=O)O[C@H]1/C=C/COC(C)(C)C(=O)NS(=O)(=O)c2ccc3c(c2)N(C[C@@H]2CC[C@H]21)C[C@@]1(CCOc2cc(Cl)ccc21)CO3` [Example 306, [(3R,6R,7S,8E,22S)-7′-Chloro-12,12-dimethyl-13,15,15-trioxo-spiro[11,20-dioxa-15-thia-1,14-diazatetracyclo[14.7.2.03,6.019,24]pentacosa-8,16,18,24-tetraene-22,4′-chromane]-7-yl] N-methoxy-N-methyl-carbamate], for which the Ki in series [2] (class symbols) was less than 1 nM. The IC50 in series [3] (setting [6]) was less than 500 nM.
Turning to `[2H]C1([2H])/C=C/[C@H](OC(=O)N(C)C)[C@@H]2CC[C@H]2CN2C[C@@]3(CCCc4cc(Cl)ccc43)COc3ccc(cc32)S(=O)(=O)NC(=O)C(C)(C)O1` [Example 312, [(3R,6R,7S,8E,22S)-6′-Chloro-10,10-dideuterio-12,12-dimethyl-13,15,15-trioxo-spiro[11,20-dioxa-15-thia-1,14-diazatetracyclo[14.7.2.03,6.019,24]pentacosa-8,16,18,24-tetraene-22,1′-tetralin]-7-yl] N,N-dimethylcarbamate], the Ki in series [2] (class symbols) was less than 1 nM. Also, the concentration for half-maximal inhibition (IC50) in series [3] (setting [6]) is less than 500 nM.
As to “(4′Z,5′E)-6-Chloro-3,4-dihydro-2H-spiro[naphthalene-1,3′-13-thia-12-aza-1(5,7)-benzo[b][1,4]oxazepina-3(4,1)-pyrazolacyclotridecaphanen]-5′-en-11′-one 13′,13′-dioxide and (4′Z,5′Z)-6-chloro-3,4-dihydro-2H-spiro[naphthalene-1,3′-13-thia-12-aza-1(5,7)-benzo[b][1,4]oxazepina-3(4,1)-pyrazolacyclotridecaphanen]-5′-en-11′-one 13′,13′-dioxide [Example 11]”, in series [2] (numeric values), the Ki amounted to 503 nM. In addition, the IC50 in series [3] (24 hours) is greater than 1000 nM.
